Assay results as given in patent US10973832B2, “Muscarinic M1 receptor agonists” (Heptares Therapeutics Limited, priority 2011, dated 2021).

Assays:
Format in all cases: cell-based
[1] = target: T1, human muscarinic M4 receptor (Homo sapiens, UniProt P08173); assay: Phospho-ERK1/2 assay, muscarinic M4; settings: for EC50: CHO cells expressing human M4, phospho-ERK1/2 Alphascreen, read-out: pEC50 M4 (converted); for Emax: CHO, read-out: % Emax cf. ACh (M4)
T1 construct: expressed in transfected cells
T1 sequence (P08173 1-479): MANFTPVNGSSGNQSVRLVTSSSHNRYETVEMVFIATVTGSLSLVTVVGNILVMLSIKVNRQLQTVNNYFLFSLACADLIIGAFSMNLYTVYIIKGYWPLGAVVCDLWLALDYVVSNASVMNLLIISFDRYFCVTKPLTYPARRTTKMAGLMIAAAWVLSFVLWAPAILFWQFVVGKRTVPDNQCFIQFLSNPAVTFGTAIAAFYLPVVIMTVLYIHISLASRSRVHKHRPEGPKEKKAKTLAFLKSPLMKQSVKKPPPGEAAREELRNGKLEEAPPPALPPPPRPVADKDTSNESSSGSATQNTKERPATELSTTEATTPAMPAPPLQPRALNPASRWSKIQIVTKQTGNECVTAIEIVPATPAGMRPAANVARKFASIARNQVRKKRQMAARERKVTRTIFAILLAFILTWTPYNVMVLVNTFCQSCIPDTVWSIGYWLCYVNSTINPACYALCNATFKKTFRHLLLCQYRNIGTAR
Protocol: (§1) Functional assays were performed using the Alphascreen Surefire phospho-ERK1/2 assay (Crouch & Osmond, Comb. Chem. High Throughput Screen, 2008). ERK1/2 phosphorylation is a downstream consequence of both Gq/11 and Gi/o protein coupled receptor activation, making it highly suitable for the assessment of M1, M3 (Gq/11 coupled) and M2, M4 receptors (Gi/o coupled), rather than using different assay formats for different receptor subtypes. CHO cells stably expressing the human muscarinic M1, M2, M3 or M4 receptor were plated (25K/well) onto 96-well tissue culture plates in MEM-alpha+10% dialysed FBS. Once adhered, cells were serum-starved overnight. Agonist stimulation was performed by the addition of 5 μL agonist to the cells for 5 min (37° C.). Media was removed and 50 μL of lysis buffer added. After 15 min, a 4 μL sample was transferred to 384-well plate and 7 μL of detection mixture added. Plates were incubated for 2 h with gentle agitation in the dark and then read on a PHERAstar plate reader.
(§2) pEC50 and Emax figures were calculated from the resulting data for each receptor subtype.

[2] = target: T2, human muscarinic M1 receptor (Homo sapiens, UniProt P11229); assay: Phospho-ERK1/2 assay, muscarinic M1; settings: for EC50: CHO cells expressing human M1, phospho-ERK1/2 Alphascreen, read-out: pEC50 M1 (converted); for Emax: CHO, read-out: % Emax cf. ACh (M1)
T2 sequence (P11229 1-460): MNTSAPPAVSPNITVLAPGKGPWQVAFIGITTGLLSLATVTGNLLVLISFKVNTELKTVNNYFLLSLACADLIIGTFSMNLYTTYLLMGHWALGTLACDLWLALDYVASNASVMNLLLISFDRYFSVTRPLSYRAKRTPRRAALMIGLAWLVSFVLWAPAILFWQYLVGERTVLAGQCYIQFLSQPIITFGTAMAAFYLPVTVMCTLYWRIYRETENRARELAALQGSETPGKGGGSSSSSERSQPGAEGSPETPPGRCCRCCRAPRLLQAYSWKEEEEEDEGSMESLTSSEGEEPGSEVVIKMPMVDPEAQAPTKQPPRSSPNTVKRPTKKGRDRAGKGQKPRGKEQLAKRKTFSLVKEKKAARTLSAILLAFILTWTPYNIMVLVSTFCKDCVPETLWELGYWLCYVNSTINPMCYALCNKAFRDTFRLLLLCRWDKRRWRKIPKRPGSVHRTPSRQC
Protocol: as §1, §2

[3] = target: T3, human muscarinic M2 receptor (Homo sapiens, UniProt P08172); assay: Phospho-ERK1/2 assay, muscarinic M2; settings: for EC50: CHO cells expressing human M2, phospho-ERK1/2 Alphascreen, read-out: pEC50 M2 (converted); for Emax: CHO, read-out: % Emax cf. ACh (M2)
T3 sequence (P08172 1-466): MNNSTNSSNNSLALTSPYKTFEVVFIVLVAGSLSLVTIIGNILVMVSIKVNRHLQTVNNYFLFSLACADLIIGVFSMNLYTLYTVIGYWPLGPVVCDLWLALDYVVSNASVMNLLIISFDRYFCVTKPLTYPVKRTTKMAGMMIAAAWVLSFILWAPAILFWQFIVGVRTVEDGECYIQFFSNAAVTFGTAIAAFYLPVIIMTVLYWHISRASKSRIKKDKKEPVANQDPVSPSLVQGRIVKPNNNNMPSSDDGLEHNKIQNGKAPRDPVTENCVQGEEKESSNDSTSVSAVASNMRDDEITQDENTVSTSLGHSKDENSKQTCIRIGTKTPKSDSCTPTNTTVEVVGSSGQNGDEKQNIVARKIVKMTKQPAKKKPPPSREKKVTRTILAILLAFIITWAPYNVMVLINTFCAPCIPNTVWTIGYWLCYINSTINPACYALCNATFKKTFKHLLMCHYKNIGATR
Protocol: as §1, §2

[4] = target: T4, human muscarinic M3 receptor (Homo sapiens, UniProt P20309); assay: Phospho-ERK1/2 assay, muscarinic M3; settings: for EC50: CHO cells expressing human M3, phospho-ERK1/2 Alphascreen, read-out: pEC50 M3 (converted); for Emax: CHO, read-out: % Emax cf. ACh (M3)
T4 construct: expressed in transfected cells
T4 sequence (P20309 whole entry): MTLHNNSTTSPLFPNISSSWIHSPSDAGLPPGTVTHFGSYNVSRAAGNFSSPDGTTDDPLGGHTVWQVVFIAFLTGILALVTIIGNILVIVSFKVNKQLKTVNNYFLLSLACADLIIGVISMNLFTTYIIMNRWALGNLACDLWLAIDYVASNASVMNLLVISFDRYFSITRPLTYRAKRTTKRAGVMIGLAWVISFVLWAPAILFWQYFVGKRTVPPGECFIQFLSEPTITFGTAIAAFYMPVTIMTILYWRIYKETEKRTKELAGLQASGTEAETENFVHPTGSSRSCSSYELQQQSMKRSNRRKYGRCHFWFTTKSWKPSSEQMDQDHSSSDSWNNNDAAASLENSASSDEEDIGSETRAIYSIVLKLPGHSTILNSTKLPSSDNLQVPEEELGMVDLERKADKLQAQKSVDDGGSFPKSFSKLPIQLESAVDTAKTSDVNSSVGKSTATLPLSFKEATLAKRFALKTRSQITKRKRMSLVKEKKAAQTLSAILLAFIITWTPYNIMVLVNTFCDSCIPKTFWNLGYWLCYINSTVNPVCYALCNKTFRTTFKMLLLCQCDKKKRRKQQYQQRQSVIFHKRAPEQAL
Protocol: as §1, §2

EC50 [1]	Emax [1]	EC50 [2]	Emax [2]	EC50 [3]	Emax [3]	EC50 [4]	Emax [4]	Structure (SMILES)
1070 nM	63%	105 nM	90%	> 20000 nM	9%	> 20000 nM	1%	CCOC(=O)N1CCCC(N2CCC(F)(C(=O)NCC(C)(C)C)CC2)CC1 (stereo not shown) [Example 46, ethyl 4-(4-fluoro-4-((2,2-dimethylpropyl)carbamoyl)pipendin-1-yl)azepane-1-carboxylate]
417 nM	82%	93.3 nM	93%	> 20000 nM	5%	> 20000 nM	8%	C#CCOC(=O)N1CCCC(N2CCC(C(=O)NCC(C)C)CC2)CC1 (stereo not shown) [Example 57, prop-2-yn-1-yl-4-(4-((2-methylpropyl)carbamoyl)piperidin-1-yl)azepane-1-carboxylate]
> 20000 nM	13%	72.4 nM	96%	> 20000 nM	2%	> 20000 nM	8%	CCOC(=O)N1CCCC(N2CCC(C(=O)NCC(C)C3CC3)CC2)CC1 (stereo not shown) [Example 39, ethyl 4-(4-((2-cyclopropylpropyl)carbamoyl)piperidin-1-yl)azepane-1-carboxylate]
427 nM	67%	60.3 nM	117%	> 20000 nM	7%	> 20000 nM	11%	CCOC(=O)N1CCCC(N2CCC(C(=O)NCC3CCC3)CC2)CC1 (stereo not shown) [Example 11, ethyl 4-(4-((cyclobutylmethyl)carbamoyl)piperidin-1-yl)azepane-1-carboxylate]
224 nM	104%	57.5 nM	132%	> 20000 nM	3%	> 20000 nM	33%	CCOC(=O)N1CCCC(N2CCC(C(=O)NC3CCCC3)CC2)CC1 (stereo not shown) [Example 30, ethyl 4-(4-(cyclopentylcarbamoyl)piperidin-1-yl)azepane-1-carboxylate]
724 nM	46%	61.7 nM	104%	> 20000 nM	0%	> 20000 nM	5%	CCOC(=O)N1CCCC(N2CCC(C(=O)NC3(C)CCCCC3)CC2)CC1 (stereo not shown) [Example 17, ethyl 4-(4-((1-methylcyclohexyl)carbamoyl)piperidin-1-yl)azepane-1-carboxylate]
123 nM	90%	31.6 nM	122%	> 20000 nM	0%	> 20000 nM	13%	CCOC(=O)N1CCCC(N2CCC(C(=O)NC(C)(C)C(C)C)CC2)CC1 (stereo not shown) [Example 31, ethyl 4-(4-((2,3-dimethylbutan-2-yl)carbamoyl)piperidin-1-yl)azepane-1-carboxylate]
794 nM	55%	269 nM	107%	> 20000 nM	5%	> 20000 nM	3%	CCOC(=O)N1CCCC(N2CCC(C(=O)NC3(C(F)(F)F)CCC3)CC2)CC1 (stereo not shown) [Example 70]
871 nM	27%	97.7 nM	113%	> 20000 nM	7%	> 20000 nM	27%	CCOC(=O)N1CCCC(N2CCC(OC)(C(=O)NC3(C)CCC3)CC2)CC1 (stereo not shown) [Example 79, ethyl 4-{4-methoxy-4-[(1-methylcyclobutyl)carbamoyl]piperidin-1-yl}azepane-1-carboxylate]
589 nM	39%	83.2 nM	101%	> 20000 nM	7%	> 20000 nM	4%	CCOC(=O)N1CCCC(N2CCC(C(=O)NCC3(C)CCCC3)CC2)CC1 (stereo not shown) [Example 18]
550 nM	67%	112 nM	107%	> 20000 nM	5%	> 20000 nM	12%	CCOC(=O)N1CCCC(N2CCC(C(=O)NCC3CC3)CC2)CC1 (stereo not shown) [Example 15, ethyl 4-(4-((cyclopropylmethyl)carbamoyl)piperidin-1-yl)azepane-1-carboxylate]
240 nM	78%	10.5 nM	120%	> 20000 nM	12%	> 20000 nM	14%	CCOC(=O)N1CCCC(N2CCC(C(=O)NCC3(C)CCC3)CC2)CC1 (stereo not shown) [Example 69, ethyl 4-(4-{[(1-methylcyclobutyl)methyl]carbamoyl}piperidin-1-yl)azepane-1-carboxylate]
794 nM	87%	87.1 nM	102%	> 20000 nM	14%	> 20000 nM	13%	[2H]C([2H])([2H])C([2H])(C([2H])([2H])[2H])C([2H])([2H])NC(=O)C1CCN(C2CCCN(C(=O)OCC)CC2)CC1 (stereo not shown) [Example 75, ethyl 4-(4-{[2-(^2H3)methyl(^2H6)propyl]carbamoyl}piperidin-1-yl)azepane-1-carboxylate]
3240 nM	81%	107 nM	104%	> 20000 nM	5%	> 20000 nM	9%	CCOC(=O)N1CCC[C@@H](N2CCC(C(=O)NCC(C)C)CC2)CC1 [Example 64]
417 nM	113%	31.6 nM	104%	> 20000 nM	19%	> 20000 nM	5%	CCOC(=O)N1CCCC(N2CCC(F)(C(=O)NC(C)(C)C(C)C)CC2)CC1 (stereo not shown) [Example 44, ethyl 4-(4-fluoro-4-((2,3-dimethylbutan-2-yl)carbamoyl)piperidin-1-yl)azepane-1-carboxylate]
309 nM	51%	447 nM	95%	> 20000 nM	7%	> 20000 nM	0%	CCOC(=O)N1CCCC(N2CCC(C(=O)N(CC)CC3CC3)CC2)CC1 (stereo not shown) [Example 26, ethyl 4-(4-((cyclopropylmethyl)(ethyl)carbamoyl)piperidin-1-yl)azepane-1-carboxylate]
1620 nM	81%	55 nM	89%	> 20000 nM	16%	> 20000 nM	2%	CCOC(=O)N1CCCC(N2CCC(C#N)(C(=O)NC3(C)CCC3)CC2)CC1 (stereo not shown) [Example 82, ethyl 4-{4-cyano-4-[(1-methylcyclobutyl)carbamoyl]piperidin-1-yl}azepane-1-carboxylate]
